In ChEMBL document CHEMBL6103628, “Structural Optimization of Covalent Inhibitors for Deubiquitinase ChlaDUB1 of Chlamydia trachomatis as Antibiotic Agents” (J Med Chem, 2025) one finds inhibition data, which are given here for one compound.

This test addresses T1, Deubiquitinase and deneddylase Dub2 (Chlamydia trachomatis) (UniProt O84875).
T1 sequence (whole entry): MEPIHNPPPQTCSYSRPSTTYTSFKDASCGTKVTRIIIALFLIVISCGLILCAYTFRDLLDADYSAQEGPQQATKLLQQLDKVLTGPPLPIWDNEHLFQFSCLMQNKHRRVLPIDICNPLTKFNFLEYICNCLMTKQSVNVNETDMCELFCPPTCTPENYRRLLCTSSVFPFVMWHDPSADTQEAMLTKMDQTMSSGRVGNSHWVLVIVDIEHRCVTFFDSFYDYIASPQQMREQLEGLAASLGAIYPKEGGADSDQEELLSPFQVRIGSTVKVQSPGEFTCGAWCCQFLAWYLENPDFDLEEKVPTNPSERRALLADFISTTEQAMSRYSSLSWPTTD
The test can be described thus: Inhibition of Chlamydia trachomatis DUB2 incubated for 60 mins relative to control.

Regarding `N#Cc1nccc(C(=O)NCc2nn(C(=O)Cc3ccccc3)c3ccccc23)n1`, the inhibition is 100%.

One may read the inhibition as the share of the control response that was lost under treatment. Lower therefore signals little suppression.
